Data on 31 compounds can be found in PubChem BioAssay (NCI).

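The compound was tested at five concentrations on cells cultured in 96-well plates, with a 48-hour exposure period. GI50 = concentration required for 50% inhibition of growth. The concentration for full growth arrest is given as TGI.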

The assay has as its system MDA-MB-468 breast. As to the kind of experiment: NCI anticancer screen, dose series, 48 h.

Take `COC1/C=C/OC2(C)Oc3c(C)c(O)c4c(O)c(c(C=NOC(c5ccccc5)c5ccccc5)c(O)c4c3C2=O)NC(=O)/C(C)=C/C=C/C(C)C(O)C(C)C(O)C(C)C(OC(C)=O)C1C` (stereo unspecified): the GI50 was 1.05 µM and the TGI was 2.78 µM.

Turning to `CCOC(=O)Nc1cc(-c2ccc(C)c(NS(C)(=O)=O)c2)nn2c(C)nnc12`, the GI50 was 0.557 µM and the TGI was 4.21 µM.

Regarding `COc1cc(OC)c(/C=C/C(=O)c2c(O)cc(OC)c(C3CCN(C)CC3)c2OC)c(OC)c1`, the GI50 was 1.54 µM and the TGI is 3.03 µM.

In the case of `Cn1cc(-c2ccc3nnc(C(F)(F)c4ccc5ncccc5c4)n3n2)cn1`, the GI50 was 22.5 µM and the TGI was over 100 µM.

`O=C1c2ccccc2-c2ccccc2C1(Cl)Cl`: the GI50 was 1.74 µM and the TGI came to 3.3 µM.

Consider `Cc1cc2nc3c4cc([N+](=O)[O-])ccc4n(CCN(C)C)c3nc2cc1C`, for which the GI50 is 0.374 µM and the TGI was 1.38 µM.

`O=C1Nc2c(ccc(Cl)c2Cl)/C1=C\c1cc(C(F)(F)F)cc(C(F)(F)F)c1`: the GI50 was 1.51 µM and the TGI came out at 5.6 µM.

Consider `CS(=O)(=O)c1ccc(-c2cnc(NCc3ccco3)n3cnnc23)cc1`, for which the GI50 was 27 µM and the TGI was over 100 µM.

For the compound `Cc1ccnc(NC(c2ccccc2)c2ccc3cccnc3c2O)c1` (stereo unspecified), the GI50 was 3.25 µM and the TGI turned out to be 14.3 µM.

Consider `COc1ccc2c(c1)C(=O)c1c-2c(OCCN2CCCCC2)nc2ccc(OC)cc12`, for which the GI50 is 0.392 µM and the TGI is 2.49 µM.

As to `Oc1[nH]c2ccccc2c1/C=c1/ccc2c(c1)N=C(c1cc(F)cc(F)c1)N=2`, the GI50 is 2.62 µM and the TGI is 8.64 µM.

Consider `CNC(=O)c1cc(Oc2cccc3nc(NC(=O)Nc4ccc(F)cc4F)ccc23)ccn1`, for which the GI50 is 1.83 µM and the TGI was over 50 µM.

In the case of `O=C(Nc1ccc(Cl)cc1)c1cc2ccccc2cc1OP(=O)(O)O`, the GI50 is 4.28 µM and the TGI was 29.3 µM.

In the case of `Nc1nc(Cl)nc2c1ncn2C1OC(CO)C(O)C1O` (stereo unspecified), the GI50 is over 100 µM and the TGI is over 100 µM.

With `COc1ccc(/C=C/C(=O)c2ccccc2)cc1OC`, the GI50 was 5.25 µM and the TGI turned out to be 18.6 µM.

For the compound `COc1cccc(/C=C2\CCc3ccccc3C2=O)c1`, the GI50 was 12.6 µM and the TGI amounted to 29.3 µM.

On to `CCN(CC)CCNC(=O)C(Cl)=C1C(Cl)=C(Cl)C(Cl)=C1Cl`, for which the GI50 was 2.08 µM and the TGI is 7.63 µM.

For the compound `N/C(=N\C(N)=N\c1nc2ccccc2s1)c1ccnc(Br)c1`, the GI50 is 17.5 µM and the TGI was over 100 µM.

For `O=C(Nc1nc(-c2ccccc2Cl)cs1)c1cc(-c2ccc(Cl)cc2)nc2ccc(Cl)cc12`, the GI50 was 5.6 µM and the TGI was 79.6 µM.

Regarding `COc1ccc(Nc2ncccc2C(=O)NCc2cn(Cc3cccc(Oc4ccccc4)c3)nn2)c(OC)c1`, the GI50 is 0.77 µM.

`CC/C(=C(/CC)c1ccc(O)cc1)c1ccc(O)cc1`: the GI50 was 2.71 µM and the TGI was 15.1 µM.

Regarding `COC(=O)C[Se]C(=O)Cc1c(C)n(C(=O)c2ccc(Cl)cc2)c2ccc(OC)cc12`, the GI50 was 1.47 µM and the TGI worked out at 4 µM.

On to `O=C(NC(Cc1ccccc1)C(=O)CCl)OCc1ccccc1` (stereo unspecified), for which the GI50 is 3.69 µM and the TGI is 15.4 µM.

For `COC1=CC(c2ccc[nH]2)=N/C1=C\c1[nH]c(C)c(C)c1CCC(=O)OCc1ccccc1`, the GI50 is 1.51 µM and the TGI turned out to be 5.31 µM.

`Cc1ccc(S(=O)(=O)NCCCNc2nc(Nc3ccc(N4CCN(C)CC4)cc3)nc3ccsc23)cc1`: the GI50 is 7.43 µM and the TGI is 20.6 µM.

With `CCN(CC)CC(O)c1cc(-c2ccc(Cl)cc2)nc2cc(Cl)ccc12` (stereo unspecified), the GI50 was 1.92 µM and the TGI stood at 3.53 µM.

Take `O=[N+]([O-])c1cccc([I+]c2ccccc2)c1`: the GI50 was 2.1 µM and the TGI turned out to be 17.4 µM.

As to `Cc1nc2cc(Nc3nc(Nc4ccc(F)cc4)nc(N4CCCC4)n3)ccc2n1Cc1ccccc1`, the GI50 is 1.61 µM and the TGI turned out to be 3.48 µM.

For `C=C(C)[C@@H]1CC[C@]2(C(=O)N3CCN(C)CC3)CC[C@]3(C)[C@H](CC[C@@H]4[C@@]5(C)CC[C@H](O)C(C)(C)[C@@H]5CC[C@]43C)[C@@H]12`, the GI50 was 1.82 µM and the TGI was determined as 3.63 µM.

For the compound `Clc1ccc(Nc2ncnc3c2sc2ncccc23)c(Cl)c1`, the GI50 was 0.0548 µM and the TGI came to 73.8 µM.

As for `CNC(=O)c1cc(Oc2ccc3nc(NC(=O)Nc4cc(C(F)(F)F)cc(C(F)(F)F)c4)sc3c2)ccn1`, the GI50 is 0.399 µM and the TGI worked out at 1.75 µM.
